Calls of active or inactive are those of the source. The rule behind the calls is not given here.
Each molecule was assayed against RAC-alpha serine/threonine-protein kinase (Rattus norvegicus) (UniProt P47196) (assay: Increase in Akt phosphorylation in glutamate-induced rat PC12 cells at 10 to 40 uM measured after 24 hrs by Western blot analysis).
Sequence of RAC-alpha serine/threonine-protein kinase (Rattus norvegicus) (P47196 whole entry): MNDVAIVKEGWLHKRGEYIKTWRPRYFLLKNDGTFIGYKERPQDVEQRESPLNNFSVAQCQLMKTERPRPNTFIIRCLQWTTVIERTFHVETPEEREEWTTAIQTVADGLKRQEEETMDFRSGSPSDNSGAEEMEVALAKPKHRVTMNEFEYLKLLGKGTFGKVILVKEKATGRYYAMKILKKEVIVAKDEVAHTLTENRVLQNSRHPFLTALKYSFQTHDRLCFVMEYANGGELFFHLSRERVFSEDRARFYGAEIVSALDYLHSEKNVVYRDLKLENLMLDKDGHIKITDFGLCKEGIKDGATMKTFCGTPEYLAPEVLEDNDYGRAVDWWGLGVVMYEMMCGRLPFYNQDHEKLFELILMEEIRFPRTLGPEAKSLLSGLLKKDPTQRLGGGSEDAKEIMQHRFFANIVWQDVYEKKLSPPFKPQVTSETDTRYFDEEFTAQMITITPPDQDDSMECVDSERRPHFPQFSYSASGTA

Compound | Activity
CC(=O)OC[C@@H]1[C@H]2C[C@H]2[C@]2(C)C=C3OC(=O)C(CO)=C3C[C@@H]12 | Active

The molecules below were run on PC-12 (assay: Neuroprotective activity against glutamate-induced neuronal cell death in rat PC12 cells assessed as increase in cell viability pretreated for 2 hrs followed by glutamate challenge measured after 24 hrs by MTT assay).
Assay type: functional, cell-based

Compound | EC50 | Activity
Cc1coc2c1C(=O)[C@H]1O[C@]1(C)CC[C@@H](O)[C@](C)(O)C2 | 70.3 µM | –
C=C[C@]1(C)C[C@@H]2OC(=O)C(C)=C2C[C@H]1C(=C)C [ISOGERMAFURENOLIDE] | 24.3 µM | –
CC1=C2C(=O)c3c(C)coc3[C@@H](O)[C@]2(C)[C@@H](O)CC1 | – | inactive
C=C1[C@H]2C[C@H]2[C@]2(COC(C)=O)C[C@@H]3OC(=O)C(C)=C3C[C@@H]12 | 89.5 µM | –
CC1=C2C[C@@]3(C)[C@H](C[C@H]2OC1=O)C(=O)CC[C@@H]3C | – | inactive
CC1=C(C[C@@H]2OC(=O)[C@@H](C)CC/C=C\2C)C(=O)OC1 | – | inactive
Cc1coc2c1C(=O)[C@@H]1[C@@](C)(C2)[C@H](O)CC[C@@]1(C)O | – | inactive
COCCOC(=O)C1=C(C)NC(C)=C(C(=O)OC(C)C)C1c1cccc([N+](=O)[O-])c1 (centres undefined) [NIMODIPINE] | 97.3 µM | –
CC(=O)CCc1c(C)ccc2c1C(=O)OC2(C)C | 93.1 µM | –
Cc1coc2c1C(=O)[C@H]1[C@@](C)(O)CCC(=O)[C@]1(C)C2 | – | inactive
C=C1CCC[C@]2(C)C=C3OC(=O)C(C)=C3C[C@@H]12 | – | inactive
C=C1CCC[C@]2(C)C=C3OC(=O)C(C)=C3[C@H](O)[C@@H]12 | – | inactive
C=C1CCC[C@]2(C)C[C@]3(O)OC(=O)C(C)=C3C[C@@H]12 [ATRACTYLENOLIDE III] | 36.3 µM | inactive
C=C1[C@H](O)CC[C@@]2(C)C[C@@]3(O)OC(=O)C(C)=C3C[C@H]12 | – | inactive
CC1=C2C(=O)c3c(C)coc3C(=O)[C@@]2(C)[C@@H](O)CC1 | – | inactive
C=C1CCC[C@]2(C)C(=O)c3occ(C)c3C[C@@H]12 | 119 µM | –
CC1=C2C(=O)c3c(C)coc3C[C@@]2(C)C=CC1=O | 106 µM | –
CC1=C2C(=O)[C@@](O)(C(C)C)CC[C@@]2(C)CCC1=O | 132 µM | –
Cc1coc2c1C(=O)[C@H]1[C@](C)(C2=O)[C@@H](O)CC[C@@]1(C)O | – | inactive
CC1=C2C[C@@H]3[C@](C)(CCC[C@]3(C)O)C[C@]2(O)OC1=O | – | inactive
CC(=O)OC[C@@H]1[C@H]2C[C@H]2[C@]2(C)C=C3OC(=O)C(CO)=C3C[C@@H]12 | 3.3 µM | –
Cc1coc2c1C(=O)[C@@H]1[C@@](C)(C2)C(=O)CC[C@@]1(C)O | 107 µM | –
CC1=C2C[C@@H]3[C@@](C)(C=C2OC1=O)CCC[C@@]3(C)O | – | inactive
CC(=O)OC[C@@H]1[C@H]2C[C@H]2[C@]2(C)C=C3OC(=O)C(C)=C3C[C@@H]12 | – | inactive
C=C1CC[C@@H]2C(=C)C[C@@]3(O)OC(=O)C(C)=C3[C@@]2(O)C1 | 15.2 µM | –
CC1=C2C(=O)[C@@](O)(C(C)C)CC[C@]2(C)CCC1 | – | inactive
Cc1coc2c1C(=O)[C@H]1[C@@H](C)CC[C@H](O)[C@]1(C)C2=O | 51.4 µM | –
C=C(C)[C@@H]1CC[C@]2(C)C(=C(C)C(=O)C[C@H]2O)C1 | – | inactive
CC1=C2C[C@@]3(C)[C@H](C[C@@]2(O)OC1=O)C(=O)CC[C@@H]3C | – | inactive
Cc1coc2c1C[C@@H]1[C@](C)(CCC[C@@]1(C)O)C2 | – | inactive

These molecules were tested on PC-12 (assay: Neuroprotective activity against glutamate-induced apoptotic cell death in rat PC12 cells assessed as apoptotic neurons at 10 to 40 uM pretreated with compound followed by glutamate challenge measured after 24 hrs by Hoechst 33258 staining based assay (reference value: 65.5%)).
Assay type: functional

Compound | Activity
CC(=O)OC[C@@H]1[C@H]2C[C@H]2[C@]2(C)C=C3OC(=O)C(CO)=C3C[C@@H]12 | 7.2 - 23.7%

Each molecule was assayed on PC-12 (assay: Neuroprotective activity against glutamate-induced apoptotic cell death in rat PC12 cells assessed as decrease in caspase-3 level at 10 to 40 uM measured after 24 hrs).
Assay type: functional, cell-based

Compound | Activity
CC(=O)OC[C@@H]1[C@H]2C[C@H]2[C@]2(C)C=C3OC(=O)C(CO)=C3C[C@@H]12 | Active
